In patent US20120100989A1, “3-Aryl-4-(2-thienylmethylene)isoxazol-5(4H)-ones as Fungicides” (Bayer CropScience AG, priority 2010, published 2012):

Columns and labels:
Format in all cases: in vivo
Phytophthora infestans = details: protective, 100 ppm active compound, evaluation 3 days after inoculation
Venturia inaegualis = assay: Venturia test (apple)/protective; details: protective, 100 ppm active compound, evaluation 10 days after inoculation
Experimental: Venturia Test (Apple)/Protective [table] To produce a suitable preparation of active compound, 1 part by weight of active compound is mixed with the stated amounts of solvent and emulsifier, and the concentrate is diluted with water to the desired concentration. To test for protective activity, young plants are sprayed with the active compound preparation at the stated application rate. After the spray coating has dried on, the plants are inoculated with an aqueous conidia suspension of the apple scab pathogen Venturia inaegualis and then remain in an incubation cabin at about […] and 100% relative atmospheric humidity for 1 day. The plants are then placed in the greenhouse at about 21° C. and a relative atmospheric humidity of about 90%.

Plasmopara viticola = assay: Plasmopara test (grapevine)/protective; details: protective, 100 ppm active compound, evaluation 6 days after inoculation
Experimental: Plasmopara Test (Grapevine)/Protective [table] To produce a suitable preparation of active compound, 1 part by weight of active compound is mixed with the stated amounts of solvent and emulsifier, and the concentrate is diluted with water to the desired concentration. To test for protective activity, young plants are sprayed with the active compound preparation at the stated application rate. After the spray coating has dried on, the plants are inoculated with an aqueous spore suspension of Plasmopara viticola and then remain in an incubation cabin at about 20° C. and 100% relative atmospheric humidity for 1 day. The plants are then placed in a greenhouse at about 21° C. and about 90% atmospheric humidity for 4 days. The plants are then moistened and placed in an incubation cabin for 1 day.

[1] = system: Blumeria graminis f sp. tritici; assay: Blumeria test (wheat)/protective; details: protective, 1000 ppm active compound, evaluation 7 days after inoculation
Experimental: Blumeria Test (Wheat)/Protective [table] To produce a suitable preparation of active compound, 1 part by weight of active compound is mixed with the stated amounts of solvent and emulsifier, and the concentrate is diluted with water to the desired concentration. To test for protective activity, young plants are sprayed with the active compound preparation at the stated application rate. After the spray coating has dried on, the plants are dusted with spores of Blumeria graminis f sp. tritici.

Alternaria solani = assay: Alternaria test (tomato)/protective; details: protective, 500 ppm active compound, evaluation 7 days after inoculation
Experimental: Alternaria Test (Tomato)/Protective [table] To produce a suitable preparation of active compound, 1 part by weight of active compound is mixed with the stated amounts of solvent and emulsifier, and the concentrate is diluted with water to the desired concentration. To test for protective activity, young tomato plants are sprayed with the active compound preparation at the stated application rate. 1 day after the treatment, the plants are inoculated with a spore suspension of Alternaria solani and then remain at 100% relative humidity and 20° C. for 24 h. The plants then remain at 96% relative atmospheric humidity and a temperature of 20° C.

CC1=NOC(=O)/C1=C\c1ccco1 [A-8]
efficacy (Phytophthora infestans): 0%
efficacy (Venturia inaegualis): 6%
efficacy (Plasmopara viticola): 28%
efficacy [1]: 29%
efficacy (Alternaria solani): 0%
